Test results reported in paper PMC11995216, “End-to-End Backbone Cyclization Enhances Passive Permeability of bRo5 Oligomeric Depsipeptides with Nonlinear Size Dependence” (ACS Medicinal Chemistry Letters, 2025).
Like-named read-outs stand apart in the source and are kept apart here.

Tests used:
PAMPA [1] = test system: PAMPA
PAMPA [2] = test system: PAMPA; remark: listed apart in the source
[3] = PAMPA, permeability assay across an artificial membrane; details: for Acceptor Concentration, Ave: after incubation
[4] = PAMPA, ratio-based method, mean ± SD, C0 500 uM, UV detection

With `CCCCC[C@@H]1OC(=O)[C@@H](C)N(C)C(=O)[C@H](CCCCC)OC(=O)[C@@H](C)N(C)C(=O)[C@H](CCCCC)OC(=O)[C@@H](C)N(C)C(=O)[C@H](CCCCC)OC(=O)[C@@H](C)N(C)C1=O` [Compound C1.4, ent-verticilide] as the compound, how does the Acceptor Concentration (PAMPA [1]; Acceptor Concentration (uM) – ELSD Detection / [row 1]) read?
Its Acceptor Concentration is 122 µM.

What about the Acceptor Concentration (PAMPA [1]; Acceptor Concentration (uM) – ELSD Detection / [row 2]) of the same compound?
The Acceptor Concentration was 148 µM.

What about the Acceptor Concentration (PAMPA [1]; Acceptor Concentration (uM) – ELSD Detection / [row 3]) of the same compound?
The Acceptor Concentration was 157 µM.

And the Acceptor Concentration (PAMPA [1]; Acceptor Concentration (uM) – ELSD Detection / [row 4])?
The Acceptor Concentration was 122 µM.

What about the Acceptor Concentration (PAMPA [1]; Acceptor Concentration (uM) – ELSD Detection / [row 5]) of the same compound?
The Acceptor Concentration was 137 µM.

What about the Acceptor Concentration (PAMPA [1]; Acceptor Concentration (uM) – ELSD Detection / [row 6]) of the same compound?
Its Acceptor Concentration is 76.5 µM.

What about the Acceptor Concentration (PAMPA [1]; Acceptor Concentration (uM) – ELSD Detection / [row 7]) of the same compound?
Its Acceptor Concentration is 98.2 µM.

And the Acceptor Concentration (PAMPA [1]; Acceptor Concentration (uM) – ELSD Detection / [row 8])?
Its Acceptor Concentration is 94.4 µM.

And the Acceptor Concentration (PAMPA [1]; Acceptor Concentration (uM) – ELSD Detection / [row 9])?
The Acceptor Concentration was 105 µM.

What about the Acceptor Concentration (PAMPA [1]; Acceptor Concentration (uM) – ELSD Detection / [row 10]) of the same compound?
Its Acceptor Concentration is 92.1 µM.

What about the Acceptor Concentration (PAMPA [1]; Acceptor Concentration (uM) – ELSD Detection / [row 11]) of the same compound?
The Acceptor Concentration was 114 µM.

What about the Acceptor Concentration (PAMPA [1]; Acceptor Concentration (uM) – ELSD Detection / [row 12]) of the same compound?
Its Acceptor Concentration is 159 µM.

And the Acceptor Concentration (PAMPA [1]; Acceptor Concentration (uM) – ELSD Detection / [row 13])?
The Acceptor Concentration was 121 µM.

What about the Acceptor Concentration (PAMPA [1]; Acceptor Concentration (uM) – ELSD Detection / [row 14]) of the same compound?
The Acceptor Concentration was 125 µM.

And the Acceptor Concentration (PAMPA [1]; Acceptor Concentration (uM) – ELSD Detection / [row 15])?
The Acceptor Concentration was 150 µM.

What about the Acceptor Concentration (PAMPA [1]; Acceptor Concentration (uM) – ELSD Detection / [row 16]) of the same compound?
The Acceptor Concentration was 136 µM.

And the Acceptor Concentration (PAMPA [1]; Acceptor Concentration (uM) – ELSD Detection / [row 17])?
The Acceptor Concentration was 142 µM.

And the Acceptor Concentration (PAMPA [1]; Acceptor Concentration (uM) – ELSD Detection / [row 18])?
Its Acceptor Concentration is 129 µM.

What about the Acceptor Concentration (PAMPA [1]; Acceptor Concentration (uM) – ELSD Detection / [row 19]) of the same compound?
The Acceptor Concentration was 90.2 µM.

And the Acceptor Concentration (PAMPA [1]; Acceptor Concentration (uM) – ELSD Detection / [row 20])?
Its Acceptor Concentration is 59.8 µM.

And the Acceptor Concentration (PAMPA [1]; Acceptor Concentration (uM) – ELSD Detection / [row 21])?
The Acceptor Concentration was 91.7 µM.

What about the Acceptor Concentration (PAMPA [1]; Acceptor Concentration (uM) – ELSD Detection / [row 22]) of the same compound?
The Acceptor Concentration was 130 µM.

What about the Acceptor Concentration (PAMPA [1]; Acceptor Concentration (uM) – ELSD Detection / [row 23]) of the same compound?
The Acceptor Concentration was 115 µM.

What about the Acceptor Concentration (PAMPA [1]; Acceptor Concentration (uM) – ELSD Detection / [row 24]) of the same compound?
The Acceptor Concentration was 125 µM.

What about the Papp (PAMPA [2]; Papp (x 10^-6 cm/s) – ELSD Detection / [row 1], ELSD Detection) of the same compound?
Its Papp is 7.05 ×10⁻⁶ cm/s.

And the Papp (PAMPA [2]; Papp (x 10^-6 cm/s) – ELSD Detection / [row 2], ELSD Detection)?
The Papp was 7.2 ×10⁻⁶ cm/s.

And the Papp (PAMPA [2]; Papp (x 10^-6 cm/s) – ELSD Detection / [row 3], ELSD Detection)?
Its Papp is 4.28 ×10⁻⁶ cm/s.

What about the Papp (PAMPA [2]; Papp (x 10^-6 cm/s) – ELSD Detection / [row 4], ELSD Detection) of the same compound?
Its Papp is 7.39 ×10⁻⁶ cm/s.

And the Papp (PAMPA [2]; Papp (x 10^-6 cm/s) – ELSD Detection / [row 5], ELSD Detection)?
The Papp was 4.99 ×10⁻⁶ cm/s.

And the Papp (PAMPA [2]; Papp (x 10^-6 cm/s) – ELSD Detection / [row 6], ELSD Detection)?
Its Papp is 6.24 ×10⁻⁶ cm/s.

And the Papp (PAMPA [2]; Papp (x 10^-6 cm/s) – ELSD Detection / [row 7], ELSD Detection)?
Its Papp is 5.58 ×10⁻⁶ cm/s.

And the Papp (PAMPA [2]; Papp (x 10^-6 cm/s) – ELSD Detection / [row 8], ELSD Detection)?
Its Papp is 7.27 ×10⁻⁶ cm/s.

What about the Papp (PAMPA [2]; Papp (x 10^-6 cm/s) – ELSD Detection / [row 9], ELSD Detection) of the same compound?
Its Papp is 4.68 ×10⁻⁶ cm/s.

What about the Papp (PAMPA [2]; Papp (x 10^-6 cm/s) – ELSD Detection / [row 10], ELSD Detection) of the same compound?
Its Papp is 4.63 ×10⁻⁶ cm/s.

And the Papp (PAMPA [2]; Papp (x 10^-6 cm/s) – ELSD Detection / [row 11], ELSD Detection)?
Its Papp is 4.05 ×10⁻⁶ cm/s.

What about the Papp (PAMPA [2]; Papp (x 10^-6 cm/s) – ELSD Detection / [row 12], ELSD Detection) of the same compound?
The Papp was 6.98 ×10⁻⁶ cm/s.

What about the Papp (PAMPA [2]; Papp (x 10^-6 cm/s) – ELSD Detection / [row 13], ELSD Detection) of the same compound?
The Papp was 4.62 ×10⁻⁶ cm/s.

And the Papp (PAMPA [2]; Papp (x 10^-6 cm/s) – ELSD Detection / [row 14], ELSD Detection)?
The Papp was 3.79 ×10⁻⁶ cm/s.

And the Papp (PAMPA [2]; Papp (x 10^-6 cm/s) – ELSD Detection / [row 15], ELSD Detection)?
Its Papp is 4.66 ×10⁻⁶ cm/s.

What about the Papp (PAMPA [2]; Papp (x 10^-6 cm/s) – ELSD Detection / [row 16], ELSD Detection) of the same compound?
The Papp was 5.98 ×10⁻⁶ cm/s.

What about the Papp (PAMPA [2]; Papp (x 10^-6 cm/s) – ELSD Detection / [row 17], ELSD Detection) of the same compound?
The Papp was 5.46 ×10⁻⁶ cm/s.

What about the Papp (PAMPA [2]; Papp (x 10^-6 cm/s) – ELSD Detection / [row 18], ELSD Detection) of the same compound?
Its Papp is 6.2 ×10⁻⁶ cm/s.

And the Papp (PAMPA [2]; Papp (x 10^-6 cm/s) – ELSD Detection / [row 19], ELSD Detection)?
The Papp was 5.51 ×10⁻⁶ cm/s.

And the Papp (PAMPA [2]; Papp (x 10^-6 cm/s) – ELSD Detection / [row 20], ELSD Detection)?
Its Papp is 5.72 ×10⁻⁶ cm/s.

And the Papp (PAMPA [2]; Papp (x 10^-6 cm/s) – ELSD Detection / [row 21], ELSD Detection)?
The Papp was 4.75 ×10⁻⁶ cm/s.

What about the Papp (PAMPA [2]; Papp (x 10^-6 cm/s) – ELSD Detection / [row 22], ELSD Detection) of the same compound?
Its Papp is 7.56 ×10⁻⁶ cm/s.

And the Papp (PAMPA [2]; Papp (x 10^-6 cm/s) – ELSD Detection / [row 23], ELSD Detection)?
Its Papp is 7.22 ×10⁻⁶ cm/s.

What about the Papp (PAMPA [2]; Papp (x 10^-6 cm/s) – ELSD Detection / [row 24], ELSD Detection) of the same compound?
The Papp was 4.78 ×10⁻⁶ cm/s.

What about the Papp (PAMPA [2]; Papp (x 10^-6 cm/s) – UV Detection / [row 1], UV Detection) of the same compound?
Its Papp is 6.39 ×10⁻⁶ cm/s.

What about the Papp (PAMPA [2]; Papp (x 10^-6 cm/s) – UV Detection / [row 2], UV Detection) of the same compound?
Its Papp is 7.95 ×10⁻⁶ cm/s.

And the Papp (PAMPA [2]; Papp (x 10^-6 cm/s) – UV Detection / [row 3], UV Detection)?
Its Papp is 6.48 ×10⁻⁶ cm/s.

What about the Papp (PAMPA [2]; Papp (x 10^-6 cm/s) – UV Detection / [row 4], UV Detection) of the same compound?
Its Papp is 7.85 ×10⁻⁶ cm/s.

What about the Papp (PAMPA [2]; Papp (x 10^-6 cm/s) – UV Detection / [row 5], UV Detection) of the same compound?
The Papp was 6.83 ×10⁻⁶ cm/s.

And the Papp (PAMPA [2]; Papp (x 10^-6 cm/s) – UV Detection / [row 6], UV Detection)?
Its Papp is 7.11 ×10⁻⁶ cm/s.

And the Papp (PAMPA [2]; Papp (x 10^-6 cm/s) – UV Detection / [row 7], UV Detection)?
Its Papp is 6.85 ×10⁻⁶ cm/s.

What about the Papp (PAMPA [2]; Papp (x 10^-6 cm/s) – UV Detection / [row 8], UV Detection) of the same compound?
The Papp was 7.63 ×10⁻⁶ cm/s.

And the Papp (PAMPA [2]; Papp (x 10^-6 cm/s) – UV Detection / [row 9], UV Detection)?
Its Papp is 4.68 ×10⁻⁶ cm/s.

And the Papp (PAMPA [2]; Papp (x 10^-6 cm/s) – UV Detection / [row 10], UV Detection)?
The Papp was 4.63 ×10⁻⁶ cm/s.

What about the Papp (PAMPA [2]; Papp (x 10^-6 cm/s) – UV Detection / [row 11], UV Detection) of the same compound?
Its Papp is 4.05 ×10⁻⁶ cm/s.

What about the Papp (PAMPA [2]; Papp (x 10^-6 cm/s) – UV Detection / [row 12], UV Detection) of the same compound?
The Papp was 6.98 ×10⁻⁶ cm/s.

And the Papp (PAMPA [2]; Papp (x 10^-6 cm/s) – UV Detection / [row 13], UV Detection)?
Its Papp is 4.62 ×10⁻⁶ cm/s.

And the Papp (PAMPA [2]; Papp (x 10^-6 cm/s) – UV Detection / [row 14], UV Detection)?
Its Papp is 3.79 ×10⁻⁶ cm/s.

What about the Papp (PAMPA [2]; Papp (x 10^-6 cm/s) – UV Detection / [row 15], UV Detection) of the same compound?
The Papp was 4.66 ×10⁻⁶ cm/s.

And the Papp (PAMPA [2]; Papp (x 10^-6 cm/s) – UV Detection / [row 16], UV Detection)?
Its Papp is 5.98 ×10⁻⁶ cm/s.

What about the Papp (PAMPA [2]; Papp (x 10^-6 cm/s) – UV Detection / [row 17], UV Detection) of the same compound?
The Papp was 6.44 ×10⁻⁶ cm/s.

And the Papp (PAMPA [2]; Papp (x 10^-6 cm/s) – UV Detection / [row 18], UV Detection)?
The Papp was 7.86 ×10⁻⁶ cm/s.

And the Papp (PAMPA [2]; Papp (x 10^-6 cm/s) – UV Detection / [row 19], UV Detection)?
Its Papp is 4.86 ×10⁻⁶ cm/s.

What about the Papp (PAMPA [2]; Papp (x 10^-6 cm/s) – UV Detection / [row 20], UV Detection) of the same compound?
The Papp was 6.27 ×10⁻⁶ cm/s.

What about the Papp (PAMPA [2]; Papp (x 10^-6 cm/s) – UV Detection / [row 21], UV Detection) of the same compound?
The Papp was 6.77 ×10⁻⁶ cm/s.

And the Papp (PAMPA [2]; Papp (x 10^-6 cm/s) – UV Detection / [row 22], UV Detection)?
Its Papp is 5.18 ×10⁻⁶ cm/s.

What about the Papp (PAMPA [2]; Papp (x 10^-6 cm/s) – UV Detection / [row 23], UV Detection) of the same compound?
Its Papp is 5.55 ×10⁻⁶ cm/s.

And the Papp (PAMPA [2]; Papp (x 10^-6 cm/s) – UV Detection / [row 24], UV Detection)?
The Papp was 6.05 ×10⁻⁶ cm/s.

And the “Diffusion (%)” value ([3]; PAMPA percent diffusion, C0 500 uM)?
Its value is 25.5 ± 3.4%.

What about the Papp at 500 uM ([3]; PAMPA, Ave, ELSD detection, C0 500 uM) of the same compound?
Its Papp at 500 uM is 5.69 ×10⁻⁶ cm/s.

What about the Papp at 500 uM [3, 4] of the same compound?
Its Papp at 500 uM is 7.14 ± 0.65 ×10⁻⁶ cm/s.

And the “Acceptor Concentration, Ave” value ([3]; PAMPA, ELSD detection, C0 500 uM)?
The value was 118.4 µM.

And the “Acceptor Concentration, Ave” value ([3]; PAMPA, UV detection, C0 500 uM)?
The value was 127.6 µM.

And the “Acceptor Concentration, Ave” value ([3]; PAMPA, UV detection, C0 500 uM, listed as ent‐Verticilide)?
The value was 127.56 µM.

What about the LogPapp [3, 4] of the same compound?
The LogPapp was -5.21 ± 0.09.

And the Δ % diffusion ([3]; increase: difference between percent diffusion of macrocycle vs linear counterpart)?
Its Δ % diffusion is “↑14%”.
